23 molecules from ChEMBL document CHEMBL4823288, “Discovery and Optimization of a Series of Benzofuran Selective ERAP1 Inhibitors: Biochemical and In Silico Studies” (ACS Med Chem Lett, 2021) can be followed below.

Data set [1] addresses T1, Endoplasmic reticulum aminopeptidase 1 (Homo sapiens, UniProt Q9NZ08).
Description: Inhibition of wild type ERAP1 (unknown origin) using L-Rho-Succ-FKARKF as substrate preincubated for 15 mins followed by substrate addition and measured after 20 mins by flourescence assay
Data set [2] addresses Endoplasmic reticulum aminopeptidase 2 (Homo sapiens, UniProt Q6P179). As to the kind of experiment: Inhibition of ERAP2 (unknown origin) using Arg-AMC as substrate.
A further data set deals with Aminopeptidase N (Homo sapiens, UniProt P15144). As to the kind of experiment: Inhibition of APN (unknown origin) using Ala-AMC as substrate.
Chain of Aminopeptidase N (P15144 whole entry): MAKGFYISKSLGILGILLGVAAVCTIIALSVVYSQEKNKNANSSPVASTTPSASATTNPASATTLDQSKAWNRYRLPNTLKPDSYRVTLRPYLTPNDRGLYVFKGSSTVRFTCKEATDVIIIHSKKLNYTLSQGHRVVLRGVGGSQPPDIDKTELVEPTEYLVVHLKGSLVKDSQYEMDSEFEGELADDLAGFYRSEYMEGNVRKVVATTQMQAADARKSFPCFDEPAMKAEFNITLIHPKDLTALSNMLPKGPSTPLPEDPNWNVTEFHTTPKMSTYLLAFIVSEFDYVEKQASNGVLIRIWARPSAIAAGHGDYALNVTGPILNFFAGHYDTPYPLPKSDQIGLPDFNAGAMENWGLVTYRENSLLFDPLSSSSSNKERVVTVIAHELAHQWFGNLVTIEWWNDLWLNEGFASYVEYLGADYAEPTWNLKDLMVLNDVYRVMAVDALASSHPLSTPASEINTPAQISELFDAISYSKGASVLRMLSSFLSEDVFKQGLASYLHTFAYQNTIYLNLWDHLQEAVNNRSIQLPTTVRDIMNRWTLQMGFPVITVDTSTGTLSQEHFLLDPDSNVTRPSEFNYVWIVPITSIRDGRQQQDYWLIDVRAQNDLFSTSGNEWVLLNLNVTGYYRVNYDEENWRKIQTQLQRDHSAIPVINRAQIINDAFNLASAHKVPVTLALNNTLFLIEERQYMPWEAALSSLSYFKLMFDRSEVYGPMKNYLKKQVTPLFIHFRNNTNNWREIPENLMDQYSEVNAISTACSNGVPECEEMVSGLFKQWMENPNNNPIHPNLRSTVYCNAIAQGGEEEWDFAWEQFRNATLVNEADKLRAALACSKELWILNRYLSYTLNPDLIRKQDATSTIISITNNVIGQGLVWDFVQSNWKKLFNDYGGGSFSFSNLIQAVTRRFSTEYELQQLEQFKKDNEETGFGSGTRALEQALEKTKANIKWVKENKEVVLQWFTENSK
The target of data set [3] is T1, Endoplasmic reticulum aminopeptidase 1. As to the kind of experiment: Inhibition of ERAP1 (unknown origin) using L-Rho-Succ-AFKARKF as substrate.
Data set [4] can be described thus: Permeability of compound across apical to basolateral side in human Caco2 cells. The format is ADME, cell-based. The following applies: Caco-2, read-out: permeability. For orientation: Caco-2 cells form a polarised layer with tight junctions and transporters.
Data set [5] concerns the target T1, Endoplasmic reticulum aminopeptidase 1. The conditions noted are these: dose 10.0 µM, time 30.0 min.
Data set [6] has as its target T2, Cytochrome P450 3A4 (Homo sapiens, UniProt P08684). As to the kind of experiment: Inhibition of CYP3A4 (unknown origin) using midazolam as substrate. The class given is ADME.
Data set [7] can be described thus: Microsomal stability in rat liver microsomes assessed as intrinsic clearance. The class given is ADME, Microsome. The conditions noted are these: read-out: CLH.
Data set [8] has as its target T2, Cytochrome P450 3A4. As to the kind of experiment: Inhibition of CYP3A4 (unknown origin) using testosterone as substrate. The format is ADME.
Data set [9] is described as follows: Microsomal stability in mouse liver microsomes assessed as intrinsic clearance. The format is ADME, Microsome. The following applies: read-out: CLH.
Data set [10] is described as follows: Microsomal stability in human liver microsomes assessed as intrinsic clearance. The format is ADME, Microsome. The conditions noted are these: read-out: CLH.
Data set [11] concerns the target T1, Endoplasmic reticulum aminopeptidase 1. As to the kind of experiment: Inhibition of ERAP1 (unknown origin) using L-Rho-Succ-FKARKF as substrate.
The nature of data set [12]: Stability in human hepatocytes assessed as intrinsic clearance. The class given is ADME, cell-based, Hepatocyte.
The target of data set [13] is T1, Endoplasmic reticulum aminopeptidase 1. As to the kind of experiment: Inhibition of ERAP1 (unknown origin) using L-Rho-(D)-Q as substrate.
Substrate in data set [14]: CC(C)C[C@H](N)C(=O)Nc1ccc2c(c1)Oc1cc(NC(=O)[C@@H](CCC(N)=O)N[C@@H](C)C(=O)N[C@@H](Cc3ccccc3)C(=O)N[C@@H](CCCCN)C(=O)N[C@@H](C)C(=O)N[C@@H](CCCNC(=N)N)C(=O)N[C@@H](CCCCN)C(=O)N[C@@H](Cc3ccccc3)C(=O)O)ccc1C21OC(=O)c2ccccc21
The following applies: Homo sapiens.

Substrate in data set [15]: CC(C)C[C@H](N)C(=O)Nc1ccc2c(c1)Oc1cc(NC(=O)[C@H](N)CCC(N)=O)ccc1C21OC(=O)c2ccccc21
The following applies: Homo sapiens.

Substrate in data set [16]: CC(C)C[C@H](N)C(=O)Nc1ccc2c(c1)Oc1cc(NC(=O)[C@@H](CCC(N)=O)N[C@@H](CCCCN)C(=O)N[C@@H](C)C(=O)N[C@@H](CCCNC(=N)N)C(=O)N[C@@H](CCCCN)C(=O)N[C@@H](Cc3ccccc3)C(=O)O)ccc1C21OC(=O)c2ccccc21
Description: Inhibition of ERAP1 (unknown origin) using L-Rho-Succ-KARKF as substrate
The following applies: Homo sapiens.

Substrate in data set [17]: CC(C)C[C@H](N)C(=O)Nc1ccc2c(c1)Oc1cc(NC(=O)[C@@H](CCC(N)=O)N[C@@H](Cc3ccccc3)C(=O)N[C@@H](CCCCN)C(=O)N[C@@H](C)C(=O)N[C@@H](CCCNC(=N)N)C(=O)N[C@@H](CCCCN)C(=O)N[C@@H](Cc3ccccc3)C(=O)O)ccc1C21OC(=O)c2ccccc21
The following applies: Homo sapiens.

T2 sequence (P08684 whole entry): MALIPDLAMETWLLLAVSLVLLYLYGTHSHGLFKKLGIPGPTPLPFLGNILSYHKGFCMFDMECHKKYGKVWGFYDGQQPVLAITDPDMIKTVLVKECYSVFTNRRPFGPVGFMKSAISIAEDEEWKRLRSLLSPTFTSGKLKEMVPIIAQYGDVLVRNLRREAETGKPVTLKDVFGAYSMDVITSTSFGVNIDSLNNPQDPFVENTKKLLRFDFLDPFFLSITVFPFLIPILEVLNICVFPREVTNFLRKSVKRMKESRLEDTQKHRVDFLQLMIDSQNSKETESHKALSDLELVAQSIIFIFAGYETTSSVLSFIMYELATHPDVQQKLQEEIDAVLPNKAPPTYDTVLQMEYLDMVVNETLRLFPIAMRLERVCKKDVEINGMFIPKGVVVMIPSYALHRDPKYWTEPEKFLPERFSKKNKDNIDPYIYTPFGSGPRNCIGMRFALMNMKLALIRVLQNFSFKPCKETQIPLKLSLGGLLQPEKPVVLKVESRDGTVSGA
Chain of Endoplasmic reticulum aminopeptidase 2 (Q6P179 whole entry): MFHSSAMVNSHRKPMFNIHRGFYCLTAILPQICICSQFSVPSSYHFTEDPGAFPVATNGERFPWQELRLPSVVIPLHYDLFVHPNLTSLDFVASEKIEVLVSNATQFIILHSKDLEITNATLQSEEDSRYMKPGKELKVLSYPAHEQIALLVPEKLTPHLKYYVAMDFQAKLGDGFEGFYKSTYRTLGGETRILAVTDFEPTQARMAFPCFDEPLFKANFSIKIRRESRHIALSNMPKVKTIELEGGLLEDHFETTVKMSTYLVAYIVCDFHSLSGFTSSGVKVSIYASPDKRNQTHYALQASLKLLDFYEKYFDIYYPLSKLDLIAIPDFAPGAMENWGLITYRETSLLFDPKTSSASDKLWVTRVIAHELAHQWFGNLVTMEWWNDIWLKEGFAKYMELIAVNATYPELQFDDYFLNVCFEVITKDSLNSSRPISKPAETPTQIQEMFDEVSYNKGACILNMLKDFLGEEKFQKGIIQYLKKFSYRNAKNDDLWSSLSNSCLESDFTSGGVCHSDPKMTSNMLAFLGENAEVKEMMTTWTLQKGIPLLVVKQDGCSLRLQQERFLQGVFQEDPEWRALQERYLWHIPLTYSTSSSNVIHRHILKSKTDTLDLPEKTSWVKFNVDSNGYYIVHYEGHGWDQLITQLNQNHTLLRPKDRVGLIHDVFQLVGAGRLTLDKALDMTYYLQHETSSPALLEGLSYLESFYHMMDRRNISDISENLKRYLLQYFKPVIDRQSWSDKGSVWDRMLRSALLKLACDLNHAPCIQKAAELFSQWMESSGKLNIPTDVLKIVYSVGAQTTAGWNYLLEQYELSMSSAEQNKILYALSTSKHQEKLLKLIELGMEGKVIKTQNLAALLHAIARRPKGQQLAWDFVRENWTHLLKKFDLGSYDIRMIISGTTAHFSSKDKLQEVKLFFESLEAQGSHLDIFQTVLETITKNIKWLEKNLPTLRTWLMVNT

Usually IC50 stands for the midpoint of a concentration-inhibition curve. Higher therefore signals lower potency. Molecule `CC(C)(NC(=O)c1cc(F)cc2cc(-c3ccc(Cl)cc3)oc12)c1nnn[nH]1` displayed an IC50 in data set [1] of 0.275 µM.

`O=C(N[C@H](Cc1ccccc1)C(=O)O)c1cc(F)cc2cc(-c3ccc(Cl)cc3)oc12`: the IC50 in [2] was > 30 µM; at Aminopeptidase N it was > 30 µM; in [1] it was 0.262 µM.

Broadly, the Ki is the equilibrium dissociation constant of an inhibitor or competing ligand from its target. A high value points to lower affinity. `CC(C)C[C@H](N)C(=O)Nc1ccc2c(c1)Oc1cc(NC(=O)[C@@H](CCC(N)=O)N[C@@H](C)C(=O)N[C@@H](Cc3ccccc3)C(=O)N[C@@H](CCCCN)C(=O)N[C@@H](C)C(=O)N[C@@H](CCCNC(=N)N)C(=O)N[C@@H](CCCCN)C(=O)N[C@@H](Cc3ccccc3)C(=O)O)ccc1C21OC(=O)c2ccccc21` (some centres not stated): in [3], the affinity corresponds to a Ki of 563 µM.

What is called ΔTm is the shift of the melting midpoint relative to a reference. Take `CC(C)(NC(=O)c1cc(F)cc2cc(-c3ccc(Cl)cc3)oc12)C(=O)O`: in data set [4], the Papp A→B came to 10.8 ×10⁻⁶ cm/s. Further, in [5], the ΔTm was 0.94 °C. Further, the IC50 on Cytochrome P450 3A4 [6] is > 30 µM; in data set [2], > 30 µM; on Aminopeptidase N, > 30 µM; against Cytochrome P450 3A4 [8], > 30 µM; in [1], 0.698 µM. In addition, the microsomal CLint in [7] was 25 µL/min/mg; in data set [9], < 20 µL/min/mg; in data set [10] it was 33 µL/min/mg.

Molecule `CC(C)C[C@H](N)C(=O)Nc1ccc2c(c1)Oc1cc(NC(=O)[C@@H](CCC(N)=O)N[C@@H](Cc3ccccc3)C(=O)N[C@@H](CCCCN)C(=O)N[C@@H](C)C(=O)N[C@@H](CCCNC(=N)N)C(=O)N[C@@H](CCCCN)C(=O)N[C@@H](Cc3ccccc3)C(=O)O)ccc1C21OC(=O)c2ccccc21` (some centres not stated) returned a Ki in data set [11] of 151 µM.

On to `CCC(C)(NC(=O)c1cc(F)cc2cc(-c3ccc(Cl)cc3)oc12)C(=O)O` (configuration not stated), for which the Papp A→B in data set [4] is 8.5 ×10⁻⁶ cm/s. Further, the ΔTm in data set [5] was determined as 0.82 °C. Further, the CLH in data set [12] was 0.25 mL/h/10^6 cells. The half-inhibitory concentration (IC50) is > 30 µM at Cytochrome P450 3A4 [6]; > 30 µM in data set [2]; > 30 µM against Aminopeptidase N; > 30 µM at Cytochrome P450 3A4 [8]; 0.377 µM in data set [1]. In addition, the microsomal CLint is < 20 µL/min/mg in data set [7], 31 µL/min/mg in data set [9] and 32 µL/min/mg in data set [10].

For `O=C(N[C@@H](Cc1ccccc1)C(=O)O)c1cc(F)cc2cc(-c3ccc(Cl)cc3)oc12`, the 50% inhibitory concentration (IC50) in [2] is > 30 µM; against Aminopeptidase N it was > 30 µM; in data set [1], 1.76 µM.

Regarding `COC(=O)C(C)(C)NC(=O)c1cc(F)cc2cc(-c3ccc(Cl)cc3)oc12`, in data set [1], the IC50 was > 10 µM.

On to `O=C(NC1(C(=O)O)CCC1)c1cc(F)cc2cc(-c3ccc(C(F)(F)F)cc3)oc12`, for which the Papp A→B in data set [4] was 18.4 ×10⁻⁶ cm/s. Further, the ΔTm in [5] came to 0.5 °C. Moreover, half-maximal inhibition in data set [1] (IC50) required 1.62 µM.

For the molecule `O=C(NC1(C(=O)O)CCCCC1)c1cccc2c(Br)c(-c3ccc(Cl)cc3)oc12`, the IC50 was > 30 µM in [2], > 30 µM on Aminopeptidase N and 0.151 µM in [1].

Consider `O=C(NC1(C(=O)O)CCCC1)c1cc(F)cc2cc(-c3ccc(Cl)cc3)oc12`, for which the half-inhibitory concentration (IC50) in [2] was > 30 µM; at Aminopeptidase N it was > 30 µM; in [1], 0.099 µM.

For the molecule `O=C(NC1(C(=O)O)Cc2ccccc2C1)c1cc(F)cc2cc(-c3ccc(Cl)cc3)oc12`, the figures for the IC50 (in data set [2]; at Aminopeptidase N; in data set [1]) were > 30 µM, > 30 µM and 0.115 µM, respectively.

For `CC(C)C[C@H](N)C(=O)Nc1ccc2c(c1)Oc1cc(NC(=O)[C@H](N)CCC(N)=O)ccc1C21OC(=O)c2ccccc21` (some centres not stated), the Ki in [13] was found to be 335 µM.

With `O=C(NC1(C(=O)O)CCCCC1)c1cccc2cc(-c3ccc(Cl)cc3)oc12`, the IC50 in data set [2] is > 30 µM; on Aminopeptidase N, > 30 µM; in data set [1] it was 0.12 µM.

For `CC(C)(NC(=O)c1cc(F)cc2cc(-c3ccc(Cl)cc3)oc12)C(N)=O`, the IC50 in data set [1] was > 10 µM.

For `CN(C(=O)c1cc(F)cc2cc(-c3ccc(Cl)cc3)oc12)C(C)(C)C(=O)O`, in data set [1], inhibition was half-maximal at 1.97 µM (IC50).

In the case of `CCC(C)(NC(=O)c1cc(F)cc2cc(-c3ccc(C(F)(F)F)cc3)oc12)C(=O)O` (configuration not stated), in [1], half-maximal inhibition (IC50) was put at 2.68 µM.

As to `CC(C)(NC(=O)c1cccc2c(Br)c(-c3ccc(Cl)cc3)oc12)C(=O)O`, the half-maximal inhibitory concentration (IC50) is > 30 µM in [2], > 30 µM on Aminopeptidase N and 1.76 µM in data set [1].

For the molecule `CC(C)(NC(=O)c1cccc2cc(-c3ccc(Cl)cc3)oc12)C(=O)O`, the IC50 was > 30 µM in data set [2], > 30 µM against Aminopeptidase N and 1.03 µM in [1].

Take `O=C(NC1(C(=O)O)CC1)c1cc(F)cc2cc(-c3ccc(Cl)cc3)oc12`: the values for the IC50 (in data set [2]; on Aminopeptidase N; in [1]) were > 30 µM, > 30 µM and 1.12 µM, respectively.

`C[C@H](NC(=O)c1cc(F)cc2cc(-c3ccc(Cl)cc3)oc12)C(=O)O` yielded an IC50 in data set [1] of 4.44 µM.

On to `O=C(NC1(C(=O)O)CCCCC1)c1cc(F)cc2cc(-c3ccc(Cl)cc3)oc12`, for which the IC50 in data set [2] is > 30 µM; on Aminopeptidase N, > 30 µM; in [1], 0.034 µM.

B1: Endoplasmic reticulum aminopeptidase 1 (Homo sapiens), Q9NZ08 (protein)
chain: MVFLPLKWSLATMSFLLSSLLALLTVSTPSWCQSTEASPKRSDGTPFPWNKIRLPEYVIPVHYDLLIHANLTTLTFWGTTKVEITASQPTSTIILHSHHLQISRATLRKGAGERLSEEPLQVLEHPRQEQIALLAPEPLLVGLPYTVVIHYAGNLSETFHGFYKSTYRTKEGELRILASTQFEPTAARMAFPCFDEPAFKASFSIKIRREPRHLAISNMPLVKSVTVAEGLIEDHFDVTVKMSTYLVAFIISDFESVSKITKSGVKVSVYAVPDKINQADYALDAAVTLLEFYEDYFSIPYPLPKQDLAAIPDFQSGAMENWGLTTYRESALLFDAEKSSASSKLGITMTVAHELAHQWFGNLVTMEWWNDLWLNEGFAKFMEFVSVSVTHPELKVGDYFFGKCFDAMEVDALNSSHPVSTPVENPAQIREMFDDVSYDKGACILNMLREYLSADAFKSGIVQYLQKHSYKNTKNEDLWDSMASICPTDGVKGMDGFCSRSQHSSSSSHWHQEGVDVKTMMNTWTLQKGFPLITITVRGRNVHMKQEHYMKGSDGAPDTGYLWHVPLTFITSKSDMVHRFLLKTKTDVLILPEEVEWIKFNVGMNGYYIVHYEDDGWDSLTGLLKGTHTAVSSNDRASLINNAFQLVSIGKLSIEKALDLSLYLKHETEIMPVFQGLNELIPMYKLMEKRDMNEVETQFKAFLIRLLRDLIDKQTWTDEGSVSERMLRSQLLLLACVHNYQPCVQRAEGYFRKWKESNGNLSLPVDVTLAVFAVGAQSTEGWDFLYSKYQFSLSSTEKSQIEFALCRTQNKEKLQWLLDESFKGDKIKTQEFPQILTLIGRNPVGYPLAWQFLRKNWNKLVQKFELGSSSIAHMVMGTTNQFSTRTRLEEVKGFFSSLKENGSQLRCVQQTIETIEENIGWMDKNFDKIRVWLQSEKLERM
In general, Km refers to the substrate concentration at which the rate is half of its maximum. With B1, the Km turned out to be 2 µM in [14], 31.8 µM in [15], 3.7 µM in data set [16] and 3.1 µM in data set [17].
